# Laboratory results: patent US12421210B2, “Fused bicyclic heterocycles as therapeutic agents” (NEW YORK UNIVERSITY, priority 2018, dated 2025)
# Target: human NAMPT enzyme (His-hNAMPT) (Homo sapiens (Human), UniProt P43490)
# Test: NAMPT enzymatic inhibition assay (fluorescence, NADH product)
# Assay type: biochemical
# Settings: [BPS]; read-out: NAMPT IC50 (μM) [BPS]
# human NAMPT enzyme (His-hNAMPT), sequence (P43490 whole entry): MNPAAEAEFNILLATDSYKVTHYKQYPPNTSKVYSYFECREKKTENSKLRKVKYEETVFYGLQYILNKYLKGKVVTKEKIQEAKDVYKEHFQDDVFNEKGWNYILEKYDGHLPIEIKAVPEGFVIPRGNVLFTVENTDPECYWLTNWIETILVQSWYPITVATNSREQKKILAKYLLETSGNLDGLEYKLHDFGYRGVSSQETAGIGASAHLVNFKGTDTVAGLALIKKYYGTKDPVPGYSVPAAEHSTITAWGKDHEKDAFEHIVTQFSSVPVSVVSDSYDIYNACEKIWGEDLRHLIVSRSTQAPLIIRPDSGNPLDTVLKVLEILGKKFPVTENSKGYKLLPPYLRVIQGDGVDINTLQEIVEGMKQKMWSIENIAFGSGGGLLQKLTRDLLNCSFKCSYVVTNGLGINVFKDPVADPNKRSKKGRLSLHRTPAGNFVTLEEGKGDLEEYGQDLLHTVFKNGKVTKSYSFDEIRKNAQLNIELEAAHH
row,IC50,Structure (SMILES)
1,0.01 to 0.49 µM,"CC(C)(C)NC(=O)N1C[C@@H]2[C@@H](CCNC(=O)/C=C/c3ccc(N)nc3)[C@@H]2C1 [Example 293, (1R,5S,6s)-6-(2-((E)-3-(6-aminopyridin-3-yl)acrylamido)ethyl)-N-(tert-butyl)-3-azabicyclo[3.1.0]hexane-3-carboxamide]"

# Same assay, conditions: [HDB]; read-out: NAMPT IC50 (μM) [HDB]
row,Structure (SMILES),IC50
1,"O=C(/C=C/c1cccnc1)NCC[C@@H]1[C@H]2CN(CCc3ccccc3)C[C@@H]12 [Example 295, (E)-N-(2-((1R,5S,6s)-3-phenethyl-3-azabicyclo[3.1.0]hexan-6-yl)ethyl)-3-(pyridin-3-yl)acrylamide]",0.01 to 0.49 µM
2,"O=C(/C=C/c1cccnc1)NCC[C@@H]1[C@H]2CN(C(c3ccccc3)C(F)(F)F)C[C@@H]12 (stereo partly drawn) [Example 296, (E)-3-(pyridin-3-yl)-N-(2-((1R,5S,6s)-3-(2,2,2-trifluoro-1-phenylethyl)-3-azabicyclo[3.1.0]hexan-6-yl)ethyl)acrylamide]",< 0.01 µM
3,"O=C(/C=C/c1cccnc1)NCC[C@@H]1[C@H]2CN(Cc3ccccc3Cl)C[C@@H]12 [Example 300, (E)-N-(2-((1R,5S,6s)-3-(2-chlorobenzyl)-3-azabicyclo[3.1.0]hexan-6-yl)ethyl)-3-(pyridin-3-yl)acrylamide]",0.01 to 0.49 µM
4,"O=C(/C=C/c1cccnc1)NCC[C@@H]1[C@H]2CN(Cc3cccc(Cl)c3)C[C@@H]12 [Example 301, (E)-N-(2-((1R,5S,6s)-3-(3-chlorobenzyl)-3-azabicyclo[3.1.0]hexan-6-yl)ethyl)-3-(pyridin-3-yl)acrylamide]",< 0.01 µM
5,"O=C(/C=C/c1cccnc1)NCC[C@@H]1[C@H]2CN(Cc3ccc(Cl)cc3)C[C@@H]12 [Example 302, (E)-N-(2-((1R,5S,6s)-3-(4-chlorobenzyl)-3-azabicyclo[3.1.0]hexan-6-yl)ethyl)-3-(pyridin-3-yl)acrylamide]",0.01 to 0.49 µM
6,"COC(=O)C(c1ccccc1)N1C[C@@H]2[C@@H](CCNC(=O)/C=C/c3cccnc3)[C@@H]2C1 (stereo partly drawn) [Example 309, methyl 2-phenyl-2-((1R,5S,6s)-6-(2-((E)-3-(pyridin-3-yl)acrylamido)ethyl)-3-azabicyclo[3.1.0]hexan-3-yl)acetate]",< 0.01 µM
7,"O=C(/C=C/c1cccnc1)NCC[C@@H]1[C@H]2CN(c3ccnc(OC4CCOCC4)c3)C[C@@H]12 [Example 310, (E)-3-(Pyridin-3-yl)-N-(2-((1R,5S,6s)-3-(2-((tetrahydro-2H-pyran-4-yl)oxy)pyridin-4-yl)-3-azabicyclo[3.1.0]hexan-6-yl)ethyl)acrylamide]",0.01 to 0.49 µM
8,"COc1ncc(F)c(N2C[C@@H]3[C@@H](CCNC(=O)/C=C/c4ccc(F)nc4)[C@@H]3C2)n1 [Example 313, (E)-N-(2-((1R,5S,6s)-3-(5-fluoro-2-methoxypyrimidin-4-yl)-3-azabicyclo[3.1.0]hexan-6-yl)ethyl)-3-(6-fluoropyridin-3-yl)acrylamide]",< 0.01 µM
9,"CNC(=O)C(c1ccccc1)N1C[C@@H]2[C@@H](CCNC(=O)/C=C/c3cccnc3)[C@@H]2C1 (stereo partly drawn) [Example 317, (E)-N-(2-((1R,5S,6s)-3-(2-(methylamino)-2-oxo-1-phenylethyl)-3-azabicyclo[3.1.0]hexan-6-yl)ethyl)-3-(pyridin-3-yl)acrylamide]",< 0.01 µM
10,"CCN(CC)C(=O)C(c1ccccc1)N1C[C@@H]2[C@@H](CCNC(=O)/C=C/c3cccnc3)[C@@H]2C1 (stereo partly drawn) [Example 318, (E)-N-(2-((1R,5S,6s)-3-(2-(diethylamino)-2-oxo-1-phenylethyl)-3-azabicyclo[3.1.0]hexan-6-yl)ethyl)-3-(pyridin-3-yl)acrylamide]",< 0.01 µM
11,"CC(c1ccncc1)N1C[C@@H]2[C@@H](CCNC(=O)/C=C/c3cccnc3)[C@@H]2C1 (stereo partly drawn) [Example 319, (E)-3-(pyridin-3-yl)-N-(2-((1R,5S,6s)-3-(1-(pyridin-4-yl)ethyl)-3-azabicyclo[3.1.0]hexan-6-yl)ethyl)acrylamide]",< 0.01 µM
12,"CC(c1cccnc1)N1C[C@@H]2[C@@H](CCNC(=O)/C=C/c3cccnc3)[C@@H]2C1 (stereo partly drawn) [Example 320, (E)-3-(pyridin-3-yl)-N-(2-((1R,5S,6s)-3-(1-(pyridin-3-yl)ethyl)-3-azabicyclo[3.1.0]hexan-6-yl)ethyl)acrylamide]",< 0.01 µM
13,"CC(c1ccccn1)N1C[C@@H]2[C@@H](CCNC(=O)/C=C/c3cccnc3)[C@@H]2C1 (stereo partly drawn) [Example 321, (E)-N-(2-((1R,5S,6s)-3-(1-(pyridin-2-yl)ethyl)-3-azabicyclo[3.1.0]hexan-6-yl)ethyl)-3-(pyridin-3-yl)acrylamide]",0.01 to 0.49 µM
14,"CC(c1ccc(F)cc1)N1C[C@@H]2[C@@H](CCNC(=O)/C=C/c3cccnc3)[C@@H]2C1 (stereo partly drawn) [Example 322, (E)-N-(2-((1R,5S,6s)-3-(1-(4-fluorophenyl)ethyl)-3-azabicyclo[3.1.0]hexan-6-yl)ethyl)-3-(pyridin-3-yl)acrylamide]",0.01 to 0.49 µM
15,"CC(c1cccc(F)c1)N1C[C@@H]2[C@@H](CCNC(=O)/C=C/c3cccnc3)[C@@H]2C1 (stereo partly drawn) [Example 323, (E)-N-(2-((1R,5S,6s)-3-(1-(3-fluorophenyl)ethyl)-3-azabicyclo[3.1.0]hexan-6-yl)ethyl)-3-(pyridin-3-yl)acrylamide]",< 0.01 µM

# Further lines, results first:
row,IC50,Structure (SMILES)
1,0.01 to 0.49 µM,"O=C(/C=C/c1cccnc1)NCC[C@@]1(F)[C@@H]2CN(c3nc(Cl)ncc3F)C[C@@H]21 [Example 292, (E)-N-(2-((1R,5S,6r)-3-(2-chloro-5-fluoropyrimidin-4-yl)-6-fluoro-3-azabicyclo[3.1.0]hexan-6-yl)ethyl)-3-(pyridin-3-yl)acrylamide]"
2,0.01 to 0.49 µM,"O=C(/C=C/c1cccnc1)NCC[C@@H]1[C@H]2CN(Cc3ncccn3)C[C@@H]12 [Example 294, (E)-3-(Pyridin-3-yl)-N-(2-((1R,5S,6s)-3-(pyrimidin-2-ylmethyl)-3-azabicyclo[3.1.0]hexan-6-yl)ethyl)acrylamide]"
3,< 0.01 µM,"COc1ncc(F)c(N2C[C@@H]3[C@@H](CCNC(=O)/C=C/c4cccnc4)[C@@H]3C2)n1 [Example 297, (E)-N-(2-((1R,5S,6s)-3-(5-fluoro-2-methoxypyrimidin-4-yl)-3-azabicyclo[3.1.0]hexan-6-yl)ethyl)-3-(pyridin-3-yl)acrylamide]"
4,< 0.01 µM,"O=C(/C=C/c1cccnc1)NCC[C@@H]1[C@H]2CN(Cc3cncnc3)C[C@@H]12 [Example 298, (E)-3-(pyridin-3-yl)-N-(2-((1R,5S,6s)-3-(pyrimidin-5-ylmethyl)-3-azabicyclo[3.1.0]hexan-6-yl)ethyl)acrylamide]"
5,< 0.01 µM,"O=C(/C=C/c1cccnc1)NCC[C@@H]1[C@H]2CN(c3ccnc(OC(F)F)c3)C[C@@H]12 [Example 299, (E)-N-(2-((1R,5S,6s)-3-(2-(difluoromethoxy)pyridin-4-yl)-3-azabicyclo[3.1.0]hexan-6-yl)ethyl)-3-(pyridin-3-yl)acrylamide]"
6,0.01 to 0.49 µM,"CC(C)Oc1ncc(F)c(N2C[C@@H]3[C@@H](CCNC(=O)/C=C/c4cccnc4)[C@@H]3C2)n1 [Example 303, (E)-N-(2-((1R,5S,6s)-3-(5-fluoro-2-isopropoxypyrimidin-4-yl)-3-azabicyclo[3.1.0]hexan-6-yl)ethyl)-3-(pyridin-3-yl)acrylamide]"
7,< 0.01 µM,"CN(C)c1ncc(F)c(N2C[C@@H]3[C@@H](CCNC(=O)/C=C/c4cccnc4)[C@@H]3C2)n1 [Example 304, (E)-N-(2-((1R,5S,6s)-3-(2-(dimethylamino)-5-fluoropyrimidin-4-yl)-3-azabicyclo[3.1.0]hexan-6-yl)ethyl)-3-(pyridin-3-yl)acrylamide]"
8,< 0.01 µM,"O=C(/C=C/c1cccnc1)NCC[C@@H]1[C@H]2CN(c3nc(OC4CCOCC4)ncc3F)C[C@@H]12 [Example 305, (E)-N-(2-((1R,5S,6s)-3-(5-fluoro-2-((tetrahydro-2H-pyran-4-yl)oxy)pyrimidin-4-yl)-3-azabicyclo[3.1.0]hexan-6-yl)ethyl)-3-(pyridin-3-yl)acrylamide]"
9,0.01 to 0.49 µM,"O=C(/C=C/c1cccnc1)NCC[C@@H]1[C@H]2CN(c3nc(Oc4ccccc4)ncc3F)C[C@@H]12 [Example 306, (E)-N-(2-((1R,5S,6s)-3-(5-fluoro-2-phenoxypyrimidin-4-yl)-3-azabicyclo[3.1.0]hexan-6-yl)ethyl)-3-(pyridin-3-yl)acrylamide]"
10,0.01 to 0.49 µM,"Cc1cc(N2C[C@@H]3[C@@H](CCNC(=O)/C=C/c4cccnc4)[C@@H]3C2)cc(C)n1 [Example 307, (E)-N-(2-((1R,5S,6s)-3-(2,6-dimethylpyridin-4-yl)-3-azabicyclo[3.1.0]hexan-6-yl)ethyl)-3-(pyridin-3-yl)acrylamide]"
11,< 0.01 µM,"O=C(/C=C/c1cccnc1)NCC[C@@H]1[C@H]2CN(c3nc(OCc4ccccc4)ncc3F)C[C@@H]12 [Example 308, (E)-N-(2-((1R,5S,6s)-3-(2-(benzyloxy)-5-fluoropyrimidin-4-yl)-3-azabicyclo[3.1.0]hexan-6-yl)ethyl)-3-(pyridin-3-yl)acrylamide]"
12,< 0.01 µM,"CN(C)CCOc1ncc(F)c(N2C[C@@H]3[C@@H](CCNC(=O)/C=C/c4cccnc4)[C@@H]3C2)n1 [Example 311, (E)-N-(2-((1R,5S,6s)-3-(2-(2-(dimethylamino)ethoxy)-5-fluoropyrimidin-4-yl)-3-azabicyclo[3.1.0]hexan-6-yl)ethyl)-3-(pyridin-3-yl)acrylamide]"
13,< 0.01 µM,"Nc1ncc(F)c(N2C[C@@H]3[C@@H](CCNC(=O)/C=C/c4cccnc4)[C@@H]3C2)n1 [Example 312, (E)-N-(2-((1R,5S,6s)-3-(2-amino-5-fluoropyrimidin-4-yl)-3-azabicyclo[3.1.0]hexan-6-yl)ethyl)-3-(pyridin-3-yl)acrylamide]"
14,0.01 to 0.49 µM,"O=C(/C=C/c1cccnc1)NCC[C@@H]1[C@H]2CN(c3nc(OCCO)ncc3F)C[C@@H]12 [Example 314, (E)-N-(2-((1R,5S,6s)-3-(5-fluoro-2-(2-hydroxyethoxy)pyrimidin-4-yl)-3-azabicyclo[3.1.0]hexan-6-yl)ethyl)-3-(pyridin-3-yl)acrylamide]"
15,0.01 to 0.49 µM,"CC(c1ncccn1)N1C[C@@H]2[C@@H](CCNC(=O)/C=C/c3cccnc3)[C@@H]2C1 (stereo partly drawn) [Example 315, (E)-3-(pyridin-3-yl)-N-(2-((1R,5S,6s)-3-(1-(pyrimidin-2-yl)ethyl)-3-azabicyclo[3.1.0]hexan-6-yl)ethyl)acrylamide]"
16,0.01 to 0.49 µM,O=C(/C=C/c1cccnc1)NCC[C@@H]1[C@H]2CN(Cc3cnc(Cl)nc3)C[C@@H]12 [Example 316]
